Values quoted from earlier work, collected in patent US20190015445A1, “INJECTION […] DIOXIDE AND METHOD FOR MAKING SAME” (priority 2016, published 2019).
Read-outs that look alike come from different tables or passages of the source.

For `[O][Cl+][O-]` [chlorine dioxide], the “solubility of chlorine dioxide” value (at 20° C., aqueous solution) is listed as “about 2.9 g/L” and the “solubility of chlorine dioxide” value (at room temperature) is listed as 2900 µg/mL.
